Assay results taken from patent US5530126A, “Process for the preparation of substituted 6-(pyrazol-3yl)-1,4-benzoxazin-3-ones” (Monsanto Company, priority 1994, dated 1996).

How the values were obtained:
Type in all cases: in vivo
[1] = system: Indian Mustard; assay: Post-emergence herbicide test; settings: Brassica juncea, 11.21 kg/ha, read-out: % plant inhibition (Inmu)
Summary of the method: (§1)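 Candidate compound was suspended or dissolved with about 0.4% by volume emulsifier and sprayed onto emerged plants two to three weeks old. Application volume equalled 1870 L/Ha at 170.3 kPa. Plants then returned to greenhouse; percent inhibition compared with control recorded at 10–14 days.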

[2] = system: Cocklebur; assay: Post-emergence herbicide test; settings: Xanthium strumarium, 11.21 kg/ha, read-out: % plant inhibition (Cobu)
Summary of the method: as §1

[3] = system: Velvetleaf; assay: Post-emergence herbicide test; settings: Abutilon theophrasti, 11.21 kg/ha, read-out: % plant inhibition (Vele)
Summary of the method: as §1

[4] = system: Morningglory; assay: Post-emergence herbicide test; settings: Ipomoea, 11.21 kg/ha, read-out: % plant inhibition (Mogl)
Summary of the method: as §1

[5] = system: Wild buckwheat; assay: Post-emergence herbicide test; settings: Fallopia convolvulus, 11.21 kg/ha, read-out: % plant inhibition (Wibw)
Summary of the method: as §1

[6] = system: Yellow nutsedge; assay: Post-emergence herbicide test; settings: Cyperus, 11.21 kg/ha, read-out: % plant inhibition (Yens)
Summary of the method: as §1

[7] = system: Downy Brome; assay: Post-emergence herbicide test; settings: Bromus tectorum, 11.21 kg/ha, read-out: % plant inhibition (Dobr)
Summary of the method: as §1

[8] = system: Seedling johnsongrass; assay: Post-emergence herbicide test; settings: Sorghum halepense, 11.21 kg/ha, read-out: % plant inhibition (Sejg)
Summary of the method: as §1

[9] = system: Annual bluegrass; assay: Post-emergence herbicide test; settings: 11.21 kg/ha, read-out: % plant inhibition (Anbg)
Summary of the method: as §1

[10] = system: Barnyardgrass; assay: Post-emergence herbicide test; settings: Echinochloa crus-galli, 11.21 kg/ha, read-out: % plant inhibition (Bygr)
Summary of the method: as §1

[11] = system: Indian Mustard; assay: Pre-emergence herbicide test; settings: Brassica juncea, 11.21 kg/ha, read-out: % plant inhibition (Inmu)
Summary of the method: (§2)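 Percent growth inhibition rated roughly 11 days (range 10–14) after treatment, with pans held on a greenhouse bench and watered from below. Compound in acetone or water was sprayed onto the seed bed before covering with a layer of untreated topsoil.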

[12] = system: Cocklebur; assay: Pre-emergence herbicide test; settings: Xanthium strumarium, 11.21 kg/ha, read-out: % plant inhibition (Cobu)
Summary of the method: as §2

[13] = system: Velvetleaf; assay: Pre-emergence herbicide test; settings: Abutilon theophrasti, 11.21 kg/ha, read-out: % plant inhibition (Vele)
Summary of the method: as §2

[14] = system: Morningglory; assay: Pre-emergence herbicide test; settings: Ipomoea, 11.21 kg/ha, read-out: % plant inhibition (Mogl)
Summary of the method: as §2

[15] = system: Wild buckwheat; assay: Pre-emergence herbicide test; settings: Fallopia convolvulus, 11.21 kg/ha, read-out: % plant inhibition (Wibw)
Summary of the method: as §2

[16] = system: Yellow nutsedge; assay: Pre-emergence herbicide test; settings: Cyperus, 11.21 kg/ha, read-out: % plant inhibition (Yens)
Summary of the method: as §2

[17] = system: Downy Brome; assay: Pre-emergence herbicide test; settings: Bromus tectorum, 11.21 kg/ha, read-out: % plant inhibition (Dobr)
Summary of the method: as §2

[18] = system: Seedling johnsongrass; assay: Pre-emergence herbicide test; settings: Sorghum halepense, 11.21 kg/ha, read-out: % plant inhibition (Sejg)
Summary of the method: as §2

[19] = system: Annual bluegrass; assay: Pre-emergence herbicide test; settings: 11.21 kg/ha, read-out: % plant inhibition (Anbg)
Summary of the method: as §2

[20] = system: Barnyardgrass; assay: Pre-emergence herbicide test; settings: Echinochloa crus-galli, 11.21 kg/ha, read-out: % plant inhibition (Bygr)
Summary of the method: as §2

SMILES	inhibition at 11210 g/ha [1] [%]	inhibition at 11210 g/ha [2] [%]	inhibition at 11210 g/ha [3] [%]	inhibition at 11210 g/ha [4] [%]	inhibition at 11210 g/ha [5] [%]	inhibition at 11210 g/ha [6] [%]	inhibition at 11210 g/ha [7] [%]	inhibition at 11210 g/ha [8] [%]	inhibition at 11210 g/ha [9] [%]	inhibition at 11210 g/ha [10] [%]	inhibition at 11210 g/ha [11] [%]	inhibition at 11210 g/ha [12] [%]	inhibition at 11210 g/ha [13] [%]	inhibition at 11210 g/ha [14] [%]	inhibition at 11210 g/ha [15] [%]	inhibition at 11210 g/ha [16] [%]	inhibition at 11210 g/ha [17] [%]	inhibition at 11210 g/ha [18] [%]	inhibition at 11210 g/ha [19] [%]	inhibition at 11210 g/ha [20] [%]
Cn1nc(-c2ccc(Cl)cc2Cl)c(Cl)c1C(F)(F)F [Compound 85]	20	40	100	100	100	20	50	90	60	70	100	40	100	100	100	0	100	100	100	100
Cn1nc(-c2cc([N+](=O)[O-])c(Cl)cc2Cl)c(Cl)c1C(F)(F)F [Compound 86]	60	70	100	100	100	10	0	80	30	80	30	10	90	20	100	0	0	0	0	0
Cn1nc(-c2cc(N(S(C)(=O)=O)S(C)(=O)=O)c(Cl)cc2Cl)c(Cl)c1C(F)(F)F [Compound 87]	30	50	100	70	40	10	0	40	10	20	70	10	90	70	90	10	20	30	10	40
Cn1nc(-c2cc(NC(=O)C(F)(F)F)c(Cl)cc2Cl)c(Cl)c1C(F)(F)F [Compound 88]	60	100	100	100	100	0	10	70	10	50	20	20	80	10	100	10	10	30	20	10
Cn1nc(-c2cc(S(=O)(=O)Cl)c(Cl)cc2Cl)c(Cl)c1C(F)(F)F [Compound 89]	80	100	100	100	50	0	10	70	10	20	70	0	90	20	30	10	0	0	0	0
